Assays:
[1] = Voluntary cage running in HFD-fed mice; format: in vivo, mouse
From the text: Exercise can mitigate the negative effects of hyper-nutrition. When provided with a running wheel, mice will voluntarily run 2-10 km per night, slowing the body weight and fat gain that normally accompany HFD feeding and improving metabolic status. To benchmark the effects of sphingolipid-like compound 893 against voluntary exercise and to determine whether the beneficial effects of these interventions are additive, 16 male, C57BL/6J mice that had been fed a HFD for 7 weeks were individually housed, provided with running wheels, and randomly assigned to receive vehicle or 120 mg/kg sphingolipid-like compound 893 on the Monday/Wednesday/Friday schedule. Rodent running activity declines under stress, and monitoring the duration and distance of voluntary wheel running also provides a holistic measure of overall mouse health. […] As expected, voluntary exercise led to weight loss in vehicle-treated mice maintained on a HFD that leveled off after the first week of intervention (FIGS. 15, 21, & 22). […] Wheel running reduced fat mass while maintaining lean mass in all groups (FIGS. 15, 22 & 23).
To monitor voluntary exercise, sixteen mice were singly housed in home cages equipped with running wheels; initially n=8. A magnet was affixed to each 240 mm wheel and a bicycle odometer (Sigma BC509, Sigma Sports, Chicago) used to count the number of wheel revolutions and time spent on running on the wheels. Distance run was calculated by the equation (#revolutions×running wheel circumference=distance). The wheels were cleaned and randomly re-assigned weekly to each cage to control for differences in wheel performance. Two animals in the sphingolipid-like compound 893-treated group were euthanized due to gavage errors and were excluded from the analysis resulting in n=6.

DRP1 = DRP1 recruitment to mitochondria (DRP1/citrate synthase co-localization) and DRP1 western blot; format: cell-based, mouse; details: MEFs
Method: Mature adipocytes were serum starved for 16 h then treated with vehicle, ceramide (50 or 100 μM), or sphingolipid-like compound 893 (5 or 10 μM) in serum-free media supplemented with 0.2% fatty-acid free BSA for 3 h after which 100 nM insulin was added for 15 min. To determine total DRP1 protein levels, 100,000 MEFs were seeded into a 6-well plate for 16 h, pre-treated for 3 h with vehicle or sphingolipid-like compound 893 (5 μM) followed by a 3 h incubation in 1% BSA+ethanol or BSA-palmitate (250 μM). Cells were washed once with cold PBS, then lysed in cold RIPA buffer (140 mM NaCl, 10 mM Tris pH 8.0, 1% Triton X-100, 0.1% SDS, 1% sodium deoxycholate) with cOmplete™ protease inhibitor (Cat no. 11697498001, Millipore Sigma, St. Louis, Mo.) and phosSTOP™ phosphatase inhibitor (Cat no. 4906837001, Millipore Sigma). Samples were incubated on ice for 10 min and insoluble material removed by centrifugation (9000×g for 10 min at 4° C.). Protein content was quantified in the supernatant using the Pierce™ BCA Protein Assay Kit (Thermo-Fisher Scientific, Waltham, Mass.). Equal amounts of protein were prepared in NuPAGE® LDS Sample Buffer (NP0007, Invitrogen) containing 50 mM DTT, and heated at 70° C. for 10 min. Proteins were resolved on a NuPAGE® 4-12% Bis-Tris protein gel (NP0336, Invitrogen, Carlsbad, Calif.) and subsequently transferred to a nitrocellulose membrane. Membranes were blocked in 5% BSA in TBST for 1 h, then probed with primary antibodies overnight at 4° C. […] Band intensity was quantified using Image Studio Lite V5.2 software (Li-COR).
MEFs were washed twice with PBS and fixed with 4% paraformaldehyde for 10 min at RT. […] NADH/NADPH autofluorescence was detected with 740 nm excitation and 450±50 nm detectors using a Mai Tai two-photon laser. Fluorescence microscopy was performed on a Zeiss LSM 780 confocal using a 63× oil objective with a […] numerical aperture (NA) or using a Nikon TE2000-S inverted epifluorescence microscope with a 100× oil objective (1.3 NA) and a Photometrics CoolSNAP ES2 monochrome CCD camera. […]

ARF6 = ARF6 (Homo sapiens, UniProt P62330); details: cited from earlier work
ARF6, sequence (P62330 whole entry, species assumed): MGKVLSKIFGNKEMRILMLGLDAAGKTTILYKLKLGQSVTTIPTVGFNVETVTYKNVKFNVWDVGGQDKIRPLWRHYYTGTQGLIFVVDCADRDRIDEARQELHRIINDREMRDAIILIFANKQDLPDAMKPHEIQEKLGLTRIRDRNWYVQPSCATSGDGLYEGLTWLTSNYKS

SMILES: CCCCCCCCc1ccc([C@H]2CCN[C@@H]2CO)cc1.Cl [compound 893]
- Average time spent on running wheels each day ([1]; HFD-fed mice with running wheels, 120 mg/kg): equivalent in vehicle- and sphingolipid-like compound 893-treated groups
- Average daily distance run ([1]; HFD-fed mice with running wheels, 120 mg/kg Mon/Wed/Fri): 2.8±1.2 km
- Weight loss, running wheel plus treatment ([1]; HFD-fed mice, running wheel and 120 mg/kg): even greater weight loss than observed with either treatment alone
- DRP1 recruitment to mitochondria in response to palmitate (DRP1; 893 5 μM or YM201636 800 nM 3 h, then palmitate 250 μM 3 h): prevented the recruitment of the GTPase that mediates fission, DRP1, to mitochondrial membranes
- DRP1 protein expression levels (DRP1; 893 5 μM, palmitate 250 μM, western blot): without affecting DRP1 protein expression levels
- Effect on ARF6 (ARF6): inactivates
